Source: article PMC4099174 (Journal of Medicinal Chemistry, 2014)
Read-outs that look alike come from different tables or passages of the source. Marks after values point to notes of the source that are not given here.

What was measured:
[1] = test system: HepG2 cell line
[2] = test system: bloodstream form of T. brucei; experiment: Transferrin uptake (receptor-mediated endocytosis); assay type: cell-based, Trypanosoma brucei; conditions: concentration twice the EC50, 18 h
Text: Highly efficient and rapid endocytosis is one of the most important cellular processes for this infective parasite to survive and multiply within the bloodstream of the host, and the activity of TbPI3KIII is essential for this process.[25] To gain insight on the possible target(s) of our compounds, we carried out transferrin uptake experiments to measure receptor-mediated endocytosis after drug treatment. […] Compound 16e induced a phenotype defective in endocytosis (Figure 3); however, the PIP3 molecular species identified (42:7-9) was not the same PIP3 molecular species identified in WT cells (44:9-12).
Two million trypanosomes were harvested and washed with TDB-glucose plus 1% BSA, resuspended in 250 μL in the same buffer, and incubated for 10 min at 37 °C prior to the addition of 5 μg of AlexaFluor 488-conjugated human holo-Tf (Invitrogen). Incubations were carried out for 0 (no Tf) or 3 min at 37 °C, after which cells were immediately fixed in 4 °C in 1% PFA diluted in cold PBS for at least 1 h. Parasites were finally washed twice with PBS and analyzed with a Becton Dickinson FACSCalibur flow cytometer (BD Biosciences) using BD CellQuest Pro version 4.0.2 software.

[3] = test system: phosphorylated PIs (PIP, PIP3) in T. brucei cells; experiment: Phospholipidomics analysis (ES-MS of lipid extracts); assay type: cell-based, Trypanosoma brucei; conditions: 200 nM, 12 h; negative ion mode scans 950–1300 m/z
Text: We originally selected 1 to investigate its potential as an trypanocidal agent on the basis of its activity as a PI3K/mTOR inhibitor in mammalian cells and the fact that PI3K activity is essential for the bloodstream form of the T. brucei parasite.[25] In the interest of elucidating the potential mechanism of action against T. brucei cells, we performed a lipidomic analysis to discern if PI kinases are likely targets of these analogues. Lipid extracts of cells grown in the presence of the best compounds at sublethal doses (200 nM) for 12 h were analyzed by ES-MS. […] There were no significant differences in the phosphatidylcholine (PC) and sphingomylein (SM) species between the control and cells grown in the presence of the other compounds (Figure S1). […] Alternatively, as is often the case, changes in the lipid profile could be a reflection in the cells succumbing to (or adapting to) a defect in a major cellular process, such as endo- or exocytosis or cell cycle arrest.
Because these compounds are thought to target PI3K, negative ion mode scans between 950 and 1300 m/z were conducted to focus upon singly and multiply phosphorylated PIs.
Total lipids from mid log phase cells were extracted by the method of Bligh and Dyer.[30] Briefly, mid log phase cells were collected by centrifugation (800g, 10 min), washed with PBS, resuspended in 100 μL of TDB-glucose, transferred to a glass tube containing 375 μL of 1:2 (v/v) CHCl3/MeOH, and vortexed. The sample was agitated vigorously for a further 10–15 min. The sample was made biphasic by the addition of 125 μL of CHCl3 and vortexed, and then 125 μL of H2O was added. The sample was vortexed again and centrifuged at 3000g at rt for 10 min. The lower (organic) phase was transferred into a new glass vial, and the aqueous phase was re-extracted with the fresh lower phase. The resultant lower phase lipid extract was dried under a stream of nitrogen and stored at 4 °C.
Lipid extracts were dissolved in 15 μL of CHCl3/MeOH (1:2) and 15 μL of acetonitrile/isopropanol/water (6:7:2) and analyzed with a triple quadrupole mass spectrometer (Absceix 4000 QTrap) equipped with a nanoelectrospray source. […] The lipid extracts were analyzed in both positive and negative ion modes using a capillary voltage of 1.25 kV. […] Tandem mass spectra (MS/MS) were obtained with collision energies as follows: 35–45 V, PC/SM in positive ion mode, parent-ion scanning of m/z 184; 35–55 V, PI in negative ion mode, parent-ion scanning of m/z 241; 35–65 V, PE in negative ion mode, parent-ion scanning of m/z 196; 20–35 V, PS in negative ion mode, neutral loss scanning of m/z 87; and 40–90 V, for all glycerophospholipids (including PA, PG, and cardiolipin) detected by precursor scanning for m/z 153 in negative ion mode. […]

[4] = test system: Bloodstream form culture of T. b. brucei; experiment: Cell cycle analysis by FACS (propidium iodide); assay type: cell-based, Trypanosoma brucei brucei; conditions: concentration twice the EC50, 18 h
Description: For cell cycle analysis, samples (1.5 × 10^6 cells) were collected, centrifuged (1400g at 4 °C for 5 min), and washed in trypanosome dilution buffer (TDB). The cell pellets were gently suspended in 50 μL of TDB and permeabilized by adding 1 μL of saponin (25 mg/mL) for 3 min. It was then mixed with another 450 μL of TDB. RNase and propidium iodide (PI) were added to the suspension at final concentrations of 10 and 20 μg/mL, respectively, and the samples were incubated at room temperature for 30 min and then stored at 4 °C. The DNA content of PI-stained cells and the percentage of cells in each phase of the cell cycle (10 000 cells per sample) were analyzed with a Becton Dickinson FACSCalibur flow cytometer (BD Biosciences) using BD CellQuest Pro version 4.0.2 software.
Figure S3. Cell Cycle analysis of parasites upon dosage with NVP-BEZ235 derivative.
Bloodstream form culture of T. b. brucei was subjected to different drugs and analyzed by
Fluorescencecactivated cell sorter (FACS) for DNA content stained by propidium iodide (PI).
Cell cultures were incubated during 18 h with various NVPcBEZ235 derivatives using DMSO as
a control treatment. Mean ± SD of three independent experiments are shown.

[5] = Table 1, Selectivity = TC50/EC50 (HepG2 / T. brucei)
[6] = Table 2, Selectivity = TC50/EC50

## Cn1c(=O)n(-c2ccc(C(C)(C)C#N)cc2)c2c3cc(-c4ccncc4)ccc3ncc21 [Compound 4a]
[1]; human, 48 h
  HepG2 TC50: 3.43 µM

## Cn1c(=O)n(-c2ccc(C(C)(C)C#N)cc2)c2c3cc(-c4cccnc4)ccc3ncc21 [Compound 4b, 2-Methyl-2-(4-(3-methyl-2-oxo-8-(pyridin-3-yl)-2,3-dihydro-1H-imidazo[4,5-c]quinolin-1-yl)phenyl)propanenitrile]
[1]; human, 48 h
  HepG2 cytotoxicity TC50: 0.575 µM

## Cn1c(=O)n(-c2ccc(C(C)(C)C#N)cc2)c2c3cc(-c4ccccc4)ccc3ncc21 [Compound 4c, 2-Methyl-2-(4-(3-methyl-2-oxo-8-phenyl-2,3-dihydro-1H-imidazo[4,5-c]quinolin-1-yl)phenyl)propanenitrile]
[1]; human, 48 h
  HepG2 TC50: 1.82^d μM

## Cn1c(=O)n(-c2ccc(C(C)(C)C#N)cc2)c2c3cc(-c4ccc(C(F)(F)F)nc4)ccc3ncc21 [Compound 4d, 2-Methyl-2-(4-(3-methyl-2-oxo-8-(6-(trifluoromethyl)pyridin-3-yl)-2,3-dihydro-1H-imidazo[4,5-c]quinolin-1-yl)phenyl)propanenitrile]
[1]; [5]
  Selectivity: >470

## Cn1cc(-c2ccc3ncc4c(c3c2)n(-c2ccc(C(C)(C)C#N)cc2)c(=O)n4C)cn1 [Compound 4e, 2-Methyl-2-(4-(3-methyl-8-(1-methyl-1H-pyrazol-4-yl)-2-oxo-2,3-dihydro-1H-imidazo[4,5-c]quinolin-1-yl)phenyl)propanenitrile]
[2]
  transferrin uptake / endocytosis: did not significantly reduce transferrin endocytosis
[3]
  phosphorylated PI (PIP) levels vs control cells: significant (albeit incomplete) reduction in PIP levels
[4]
  cell cycle progression: reducing the proportion of cells in G1 and increasing multinucleated cells

## Cn1c(=O)n(-c2ccc(C(C)(C)C#N)cc2)c2c3cc(-c4cc5ccccc5s4)ccc3ncc21 [Compound 4f, 2-(4-(8-(Benzo[b]thiophen-2-yl)-3-methyl-2-oxo-2,3-dihydro-1H-imidazo[4,5-c]quinolin-1-yl)phenyl)-2-methylpropanenitrile]
[1]; [5]
  Selectivity: >460
[1]; human, 48 h
  HepG2 toxicity (in words): no HepG2 toxicity observed

## CN1CCN(c2ccc3ncc4c(c3c2)n(-c2ccc(C(C)(C)C#N)cc2)c(=O)n4C)CC1 [Compound 5a, 2-Methyl-2-(4-(3-methyl-8-(4-methylpiperazin-1-yl)-2-oxo-2,3-dihydro-1H-imidazo[4,5-c]quinolin-1-yl)phenyl)propanenitrile]
[1]; [5]
  Selectivity: >5

## Cn1c(=O)n(-c2ccc(C(C)(C)C#N)cc2)c2c3cc(N4CCOCC4)ccc3ncc21 [Compound 5b, 2-Methyl-2-(4-(3-methyl-8-morpholino-2-oxo-2,3-dihydro-1H-imidazo[4,5-c]quinolin-1-yl)phenyl)propanenitrile]
[1]; [5]
  Selectivity: >24

## Cn1c(=O)n(-c2ccc(C(C)(C)C#N)cc2)c2c3cc(N)ccc3ncc21 [Compound 6, 2-(4-(8-Amino-3-methyl-2-oxo-2,3-dihydro-1H-imidazo[4,5-c]quinolin-1-yl)phenyl)-2-methylpropanenitrile]
[1]; [5]
  Selectivity: >4

## CC(=O)Nc1ccc2ncc3c(c2c1)n(-c1ccc(C(C)(C)C#N)cc1)c(=O)n3C [Compound 7, N-(1-(4-(2-Cyanopropan-2-yl)phenyl)-3-methyl-2-oxo-2,3-dihydro-1H-imidazo[4,5-c]quinolin-8-yl)acetamide]
[1]; [5]
  Selectivity: >5

## Cc1ccc2ncc3c(c2c1)n(-c1ccc(C(C)(C)C#N)cc1)c(=O)n3C [Compound 8, 2-(4-(3,8-Dimethyl-2-oxo-2,3-dihydro-1H-imidazo[4,5-c]quinolin-1-yl)phenyl)-2-methylpropanenitrile]
[1]; [5]
  Selectivity: >10

## Cn1c(=O)n(-c2ccc(C(C)(C)C#N)cc2)c2c3ccccc3ncc21 [Compound 9, 2-Methyl-2-(4-(3-methyl-2-oxo-2,3-dihydro-1H-imidazo[4,5-c]quinolin-1-yl)phenyl)propanenitrile]
[1]; [5]
  Selectivity: >80
[1]; human, 48 h
  HepG2 TC50: >50 µM

## Cn1c(=O)n(-c2ccc(C(C)(C)C#N)cc2)c2c3cc(C#Cc4cccnc4)ccc3ncc21 [Compound 10, reference compound]
[1]; human, 48 h
  HepG2 TC50: 0.14^d μM

## Cn1c(=O)n(-c2ccc(C(F)(F)F)cc2)c2c3cc(-c4cnc5ccccc5c4)ccc3ncc21 [Compound 16a, 3-Methyl-8-(quinolin-3-yl)-1-(4-(trifluoromethyl)phenyl)-1H-imidazo[4,5-c]quinolin-2(3H)-one]
[1]; [6]
  Selectivity: >240

## Cn1c(=O)n(-c2ccc(C#N)cc2)c2c3cc(-c4cnc5ccccc5c4)ccc3ncc21 [Compound 16b, 4-(3-Methyl-2-oxo-8-(quinolin-3-yl)-2,3-dihydro-1H-imidazo[4,5-c]quinolin-1-yl)benzonitrile]
[1]; [6]
  Selectivity: >540

## Cn1c(=O)n(-c2ccccc2)c2c3cc(-c4cnc5ccccc5c4)ccc3ncc21 [Compound 16c, 3-Methyl-1-phenyl-8-(quinolin-3-yl)-1H-imidazo[4,5-c]quinolin-2(3H)-one]
[1]; [6]
  Selectivity: >1000

## Cn1c(=O)n(-c2ccc(CC#N)cc2)c2c3cc(-c4ccncc4)ccc3ncc21 [Compound 16d, 2-(4-(3-Methyl-2-oxo-8-(pyridin-4-yl)-2,3-dihydro-1H-imidazo[4,5-c]quinolin-1-yl)phenyl)acetonitrile]
[1]; [6]
  Selectivity: >560

## CN(C)c1ccc(-n2c(=O)n(C)c3cnc4ccc(-c5ccncc5)cc4c32)cc1 [Compound 16h, 1-(4-(Dimethylamino)phenyl)-3-methyl-8-(pyridin-4-yl)-1H-imidazo[4,5-c]quinolin-2(3H)-one]
[1]; human, 48 h
  HepG2 TC50: 2.34 µM

## Cn1c(=O)n(-c2ccc(N3CCOCC3)cc2)c2c3cc(-c4ccncc4)ccc3ncc21 [Compound 16i, 3-Methyl-1-(4-morpholinophenyl)-8-(pyridin-4-yl)-1H-imidazo[4,5-c]quinolin-2(3H)-one]
[1]; [6]
  Selectivity: >24
